“Also recorded” adds a separate entry of the source.
Assays:
[1] = system: eye enlargement induced by Lrp2 knockdown (AAV8-Best1-Lrp2 sh1); assay: eye globe dimension measurement after subretinal co-injection in Lrp2 knockdown eyes; assay type: in vivo, mouse; conditions: subretinal co-injection with virus at P0, BF175 12.5 uM
Method: Subretinal injection into P0 (P2 for AAV-RK-viruses) neonate eyes was performed as known in the art. Approximately 0.25 μl of viruses in PBS was injected into the subretinal space using a pulled angled glass pipette controlled by a FemtoJet (Eppendorf). BF175 stock solution (25 mM in DMSO) was first mixed with Tween-20 (Sigma-Aldrich) at a ratio of 5:1 in order to help BF175 dissolve in PBS. Then the mixed solution was added to the virus to a final BF175 concentration of 12.5 uM. The vehicle treatment was virus added with the same amount of DMSO with Tween-20. For animals used for qPCR and RNA-seq, both left and right eyes were injected and used for RNA extraction. For animals used for eye size measurement or other phenotype characterizations, only the right eye of the animal was injected, and the fellow left eye was uninjected for with-in animal controls.
CD-1 mice were sacrificed at indicated ages. Eyes were enucleated, and connective tissues and muscles were carefully removed using tweezers and scissors. Eyes were immersed in PBS in 6 cm petri dish and imaged under a Nikon SMZ800N dissection scope with 2× magnification. ED and AL were measured in imageJ and converted to millimeters. OCT

[2] = system: SREBP2 transcriptional targets and Lrp2 in mouse RPE; assay: mouse RPE explant model, mRNA level by qPCR; assay type: cell-based
Excerpt: Eyes were quickly removed from the euthanized mouse and dipped in 70% ethanol for decontamination. Under a dissecting stereomicroscope, connective tissues and muscles were carefully removed. After washing twice in PBS, eyes were immersed in warm culture medium (DMEM:F12+10% FBS). Cornea was cutoff using curved scissors, and lens was pulled out gently with tweezers. Or a serrate was cut off to remove iris and cornea. Retina and optic nerve were carefully and completely removed from eye cups. Four radial cuts were made to enable flat-mounting of eye cups. Each eye cup was transferred onto the center of a floating polycarbonate nucleopore filter membrane (Whatman 110406, 0.2 Micron) placed in 6-well plates with the RPE side facing down. The freshly prepared BF175 stock solution was added to the full culture medium to a final BF175 concentration of 12.5 uM. Half of the medium was replaced with fresh medium on the second day. RPE flat-mounts were harvested at 48 hr in explant and processed for RPE isolation and RNA extraction.
Eyecups without retina and optic nerve tissues were dissected as described in the RPE explant section. Two eyes of the same mouse were pooled in one tube and processed together. RPE were incubated in papain solution (Worthington) for 15 minutes. After washing twice in warm medium, RPE were triturated with 600 μl pipette tip gently to dissociate the pigmented RPE cells from sclera. Resuspended cell solution was transferred to a clean tube and spun down at 600 g.
RNAs were converted to cDNA using PrimeScript RT reagent kit with gDNA Eraser (Takara). qPCR was performed using PowerUp Sybr Green Master Mix (Thermofisher) on QuantStudio 3 Real-Time PCR stems (Applied Biosystems). Gapdh was used as the normalizing control. qPCR primers were listed in Supplementary Information.

[3] = mouse RPE explant, 12.5 uM BF175 in culture medium, 48 hr

SMILES	Lrp2 sh1-induced increase in eye size [1]	mRNA level of Hmgcr [2, 3]	mRNA level of Ldlr [2, 3]	mRNA level of Lrp2 (Lrp2 gene expression in RPE) [2, 3]	Lrp2 gene expression in RPE ([2]; RPE cells, Fatostatin, concentration not given)
CC1(C)OB(c2ccc(/C=C/c3cc(Cl)cc(Cl)c3)cc2)OC1(C)C [BF175]	rescued; also recorded: effectively suppressed	reduced	reduced	significantly increased	
Br.CCCc1cc(-c2nc(-c3ccc(C)cc3)cs2)ccn1 [Fatostatin, reference compound]					increases
